In patent US10251897B2, “GLUT4 endocytosis inhibitor” (NISHIZAKI BIOINFORMATION RESEARCH INSTITUTE, priority 2014, dated 2019):

Columns and labels:
PKCα = PKCα (Homo sapiens, UniProt P17252); assay: Cell free PKC assay, PKCα activated by TPA; type: biochemical; details: DOPE 100 μM, TPA 1 μM
Protocol: (§1) PKC activity was monitored in a cell-free system. (A) Given PKC isozyme was evaluated in the absence or presence of DOPE (100 μM). […] P value, compared to each PKC isozyme activation in the absence of DOPE, Dunnett's test. (B) The activity of PKCα was evaluated in the absence (control) or presence of DOPE (100 μM), in the absence or presence of TPA (1 μM). […] P value, Dunnett's test. TPA; 12-O-tetradecanoylphorbol-[…].
(§2) PKC activity in a cell-free system was quantified by the methods described in previous reports (Kanno T et al. J Lipid Res 2006; 47:1146-1156). In short, synthesized PKC substrate peptide (10 μM) was reacted with various PKC isozymes in a medium containing 20 mM Tris-HCl (pH 7.5), 5 mM magnesium acetate, 10 μM ATP, in the presence or absence of DOPE (100 μm), in the presence or absence of 1 μM TPA (12-O-tetradecanoylphorbol-13-acetate) at 30° C. for 5 min. […] They were applied on reversed-phase HPLC (LC-10ATvp, Shimadzu Co., Kyoto, Japan), and the peak of substrate peptide and the peak of a new resultant product were measured by the absorbance at 214 nm. The areas of unphosphorylated PKC substrate peptide and phosphorylated PKC substrate peptide were measured (total area corresponds to the concentration of PKC substrate peptide used in this Example), and the amount of the phosphorylated substrate peptide was calculated. […]

GLUT4 [1] = assay: GLUT4 mobilization monitoring (cellular membrane distribution of GLUT4, Western blotting with anti-c-myc antibody); type: cell-based
Protocol: FIG. 1 is a graph showing that DOPE has an action to increase cellular membrane distribution of GLUT4 in differentiated 3T3L1-GLUT4myc adipocytes. The cells were not treated with (Control), or treated with 1 μM of various phospholipid derivatives and, after 20 min, lysed, and separated into the cytoplasm (C) fraction and cellular membrane (M) fraction, after which Western blotting was performed using an anti-c-myc antibody. […] P value, ANOVA (Bonferroni adjustment). NS; not significant. DOPE; 1,2-dioleoyl-sn-glycero-3-phosphoethanolamine, DAPE; 1,2-diarachidonoyl-sn-glycero-3-phosphoethanolamine, DPPE; 1,2-dipalmitoleoyl-sn-glycero-3-phosphoethanolamine, DLPE; 1,2-dilinoleoyl-sn-glycero-3-phosphoethanolamine.
(§3) 3T3L1-GLUT4myc fibroblast strain expressing GLUT4myc was used. The cells are constructed by inserting human c-MYC epitope (14 amino acids) into the first ectodomain. […]
(§4) The protein concentration of each fraction was measured using BCA protein assay kit (Thermo Fisher Scientific, Waltham, Mass., USA). […] The immunoreactivity was detected using ECL kit (Invitrogen), and visualized using a chemical luminescence detection system (chemiluminescence detection system; GE Healthcare, Piscataway, N.J., USA). The signal density was measured using an image analysis software (Image Gauge software; GE Healthcare).

GLUT4 [2] = assay: GLUT4 internal transfer (uptake) assay after insulin pre-treatment; type: cell-based; details: insulin 100 nM 30 min then washed
Protocol: FIG. 2 is a graph showing that the GLUT4 cellular membrane distribution increasing action of DOPE derives from the suppression of GLUT4 endocytosis. 3T3L1-GLUT4myc adipocytes were treated with insulin (100 nM) for 30 min (−30-0 min), then washed to remove insulin (0 min), and DOPE (10 mM) was added to an extracellular solution. After incubation for 120 min, the cells were lysed, and separated into the cytoplasm (C) fraction and cellular membrane (M) fraction, after which Western blotting was performed using an anti-c-myc antibody. […] P value, ANOVA (Bonferroni adjustment). NS; not significant.
as §3
as §4, with “Healthcare). […]” for “Healthcare).”

PKC isozymes = assay: Cell free PKC assay, PKC isozymes; type: biochemical; details: DOPE 100 μM, absence of TPA
Protocol: as §1, §2

Glucose tolerance test = type: in vivo, C57BL/KsJ-lepr^db/lepr^db mouse; details: type 2 diabetes model mouse, DOPE 0.1, 1, 10 mg/kg oral 30 min before glucose 2 g/kg; 30, 60, 90 min
Protocol: FIG. 6 is a graph showing that DOPE decreases the serum glucose level in C57BL/KsJ-lepr^db/lepr^db mouse. The mouse was placed in glucose starvation for 12 hr, glucose (2 g/kg) was orally administered, the blood was recovered at a given time and serum glucose assay was performed. DOPE was orally administered at a given concentration (0-10 mg/kg) 30 min before administration of glucose. […] P value, Fisher's PLSD (Protected Least Significant Difference test).
C57BL/KsJ-lepr^db/lepr^db mouse (female, 8-week-old) (CLEA Japan; Tokyo, Japan) was used. Glucose tolerance test was performed using the mouse starved for 12 hr. Glucose (2 g/ml/kg body weight) was administered by gavage, and the time point thereof was taken as 0 h. DOPE (0, 0.1, 1, 10 mg/kg) was orally administered 30 min before administration of glucose. Brine was used for DOPE (0 mg/kg). The blood (10 μl) was collected from the tail vein at the time points of 30, 60, and 90 min, and each plasma sample which was labeled with 4-aminobenzyl ethyl ester (ABEE) and prepared from the obtained blood was loaded on high performance liquid chromatography (HPLC) system (LC-10ATvp; Shimadzu Co., Kyoto, Japan). The glucose concentration was calculated from a peak area/concentration analytical curve prepared using the standard glucose solution.

PKCα activity activated by TPA (PKCα) | Molecule | distribution of GLUT4 in cellular membrane (c-myc signal in cellular membrane fraction / total cells) (GLUT4 [1]; differentiated 3T3L1-GLUT4myc adipocytes, 1 μM phospholipid derivative, 20 min, vs Control) | endocytosis of GLUT4 transported onto the cellular membrane by insulin stimulation (GLUT4 [2]; 3T3L1-GLUT4myc adipocytes) | PKC activation (PKC isozyme activity, pmol/min) (PKC isozymes) | blood glucose level (Glucose tolerance test) | GLUT4 distribution on the cellular membrane (GLUT4 [1]; 3T3L1-GLUT4myc adipocytes 48 hr after siRNA transfection, vs NC siRNA) | decrease of GLUT4 on the cellular membrane by endocytosis after insulin stimulation (GLUT4 [2]; siRNA-transfected 3T3L1-GLUT4myc adipocytes, 120 min)
suppress PKCα activated by TPA | CCCCCCCC/C=C\CCCCCCCC(=O)OC[C@H](COP(=O)(O)OCCN)OC(=O)CCCCCCC/C=C\CCCCCCCC [DOPE, 1,2-Dioleoyl-sn-glycerol-3-phosphoethanolamine] | significantly increased | suppressed | not involved in PKC activation | decrease blood glucose level of type 2 diabetes model mouse in a dose dependent manner | – | –
– | PKCα siRNA: siRNA for PKCα, SEQ ID NO: 1 and 2, purchased from Ambion (chain 1 GAACGUGCAUGAGGUGAAATT; chain 2 UUUCACCUCAUGCACGUUCTT; chemistry not given here) [reference compound] | – | – | – | – | significantly increased | the decrease was suppressed
